Experiment [1] concerns the target Mu-type opioid receptor (Homo sapiens, UniProt P35372). Nature of the experiment: Counterscreen for agonists of heterodimerization of the mu 1 (OPRM1) and delta 1 (OPRD1) opioid receptors: Luminescence-based cell-based high throughput dose response assay to identify agonists of OPRM1 homodimerization. The experiment is classed as functional. (In general: A counterscreen serves to expose hits that act by an unwanted route or on another target.);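 further: U2OS cells expressing OPRM1 and beta-arrestin as split beta-galactosidase partners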

Experiment [2] concerns the target Delta-type opioid receptor (Homo sapiens, UniProt P41143). Nature of the experiment: Counterscreen for agonists of heterodimerization of the mu 1 (OPRM1) and delta 1 (OPRD1) opioid receptors: Luminescence-based cell-based high throughput dose response assay to identify agonists of OPRD1 homodimerization. [Related pubchem assays (depositor defined):AID504326, AID504355, AID504692, AID504904, AID504905]. In kind it is functional.

Experiment [3] deals with 5-hydroxytryptamine receptor 5A (Homo sapiens, UniProt P47898). Nature of the experiment: Counterscreen for agonists of OPRM1-OPRD1 heterodimerization: luminescence-based cell-based high throughput dose response assay to identify agonists of 5-hydroxytryptamine (serotonin) 5A receptor (HTR5A). [Related pubchem assays (depositor defined):AID504326, AID504355, AID504692, AID504904, AID504905]. The experiment is classed as functional.
Chain of 5-hydroxytryptamine receptor 5A (P47898 whole entry): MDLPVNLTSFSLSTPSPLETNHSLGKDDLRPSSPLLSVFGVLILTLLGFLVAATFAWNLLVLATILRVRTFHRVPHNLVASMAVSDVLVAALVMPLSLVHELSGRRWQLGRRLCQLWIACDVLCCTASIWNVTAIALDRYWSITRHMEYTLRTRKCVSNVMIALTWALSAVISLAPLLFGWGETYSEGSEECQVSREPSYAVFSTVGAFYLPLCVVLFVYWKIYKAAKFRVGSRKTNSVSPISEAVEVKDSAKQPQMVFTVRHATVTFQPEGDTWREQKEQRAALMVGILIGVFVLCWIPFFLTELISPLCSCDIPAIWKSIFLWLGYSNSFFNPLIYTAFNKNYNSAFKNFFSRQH

Experiment [4] has as its system Vero. The experiment can be described thus: cells. Particulars: Chlorocebus sabaeus. The experiment is classed as functional, cell-based.
In experiment [5] the target is Hepatocyte nuclear factor 4-alpha (Homo sapiens, UniProt P41235). In kind it is functional, cell-based.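 Further: biochemical luminescence-based dose-response counterscreen measuring inhibition of HNF4 dimerization, run alongside a screen for blockers of ABHD5–perilipin-5 interaction; split luciferase complementation of HNF4 fusion proteins in cell lysate measuring dimerization.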
Chain of Hepatocyte nuclear factor 4-alpha (P41235 whole entry, the tested form may be a part): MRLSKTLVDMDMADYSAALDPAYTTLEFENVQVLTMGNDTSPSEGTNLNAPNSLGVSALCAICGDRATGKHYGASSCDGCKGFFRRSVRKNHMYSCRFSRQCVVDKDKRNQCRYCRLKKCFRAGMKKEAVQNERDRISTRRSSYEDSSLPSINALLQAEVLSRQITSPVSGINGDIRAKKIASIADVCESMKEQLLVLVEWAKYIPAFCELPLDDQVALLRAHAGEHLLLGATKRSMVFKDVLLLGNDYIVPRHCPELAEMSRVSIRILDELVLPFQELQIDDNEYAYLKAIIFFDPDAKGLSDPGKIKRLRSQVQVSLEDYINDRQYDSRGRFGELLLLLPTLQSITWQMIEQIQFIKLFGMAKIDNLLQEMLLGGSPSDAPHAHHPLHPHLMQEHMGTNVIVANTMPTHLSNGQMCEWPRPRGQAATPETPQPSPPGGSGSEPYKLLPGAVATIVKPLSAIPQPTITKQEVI
Experiment [6] deals with Vero. The experiment can be described thus: cells. Particulars: Chlorocebus sabaeus. The experiment is classed as functional.
Experiment [7] in a line: HepG2 cell cytotoxicity, dose response, cytotoxicity control, plate reader, cherry-pick, antagonist series (AID 743416). The experiment is classed as functional, cell-based.
Experiment [8] is described as follows: cells. In kind it is functional, cell-based.
Experiment [9] can be described thus: inhibitors of firefly luciferase expression or activity, dose response, H4 neuroglioma cells, luminescence (AID 1990). The experiment is classed as functional, cell-based.
Experiment [10] concerns the target T1, Heat shock factor protein 1 (Mus musculus, UniProt P38532).
T1 sequence (P38532 whole entry): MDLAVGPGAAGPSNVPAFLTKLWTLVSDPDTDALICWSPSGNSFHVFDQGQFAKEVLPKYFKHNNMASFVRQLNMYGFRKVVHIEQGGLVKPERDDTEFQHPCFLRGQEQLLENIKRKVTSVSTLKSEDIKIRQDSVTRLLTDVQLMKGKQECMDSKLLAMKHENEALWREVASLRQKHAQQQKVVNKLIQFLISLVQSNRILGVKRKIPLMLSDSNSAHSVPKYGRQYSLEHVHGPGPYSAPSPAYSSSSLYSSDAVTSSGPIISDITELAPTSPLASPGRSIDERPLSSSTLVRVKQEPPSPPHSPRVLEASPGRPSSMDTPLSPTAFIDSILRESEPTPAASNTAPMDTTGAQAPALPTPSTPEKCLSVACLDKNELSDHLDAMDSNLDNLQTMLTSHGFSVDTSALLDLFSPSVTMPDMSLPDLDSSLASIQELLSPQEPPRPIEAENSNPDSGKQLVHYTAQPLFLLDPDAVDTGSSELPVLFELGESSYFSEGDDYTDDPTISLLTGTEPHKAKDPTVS
Nature of the experiment: inhibition of MG132-induced HSE-luciferase signal, confirmation, cell-based, NIH3T3, luminescence, dose retest (AID 2382).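 Further: NIH3T3 fibroblasts with HSF1-driven luciferase reporter stressed by proteasome inhibitor MG132; luminescence from HSF1-driven luciferase expression after 8 hours of MG132 stress.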 In kind it is functional.

Experiment [11] relates to BJ. The experiment can be described thus: cytotoxicity toward BJ-TERT-LT-ST fibroblasts, dose response, cell-based, RAS-independent, luminescence (AID 1935).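 Further: BJ fibroblasts immortalized with TERT plus LT and ST oncogenes.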 The experiment is classed as functional. Particulars: Homo sapiens.
The nature of experiment [12]: cytotoxicity in HEK-293T NF-kB-Luc cells, dose response, cytotoxicity control for B/T-cell NF-kB inhibitor project, cell-based, uHTS hits (AID 489019).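 Further: IC50 reflects cytotoxicity as loss of cell viability.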 The experiment is classed as functional.
The subject of experiment [13] is BJ. The experiment can be described thus: cytotoxicity toward Ras-transformed BJeLR fibroblasts, dose response, cell-based, alamar blue fluorescence, cherrypicked samples (AID 2631).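 Further: confirmatory dose-response assay in RAS-dependent BJ fibroblasts engineered with TERT, LT and ST, with cytotoxicity read by fluorescence.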 In kind it is functional. Particulars: Homo sapiens. On the technique in general: Alamar Blue is a resazurin reagent that responds to reducing activity.
For experiment [14], the system named is BJ. The experiment can be described thus: cytotoxicity toward BJ-TERT fibroblasts, dose response, cell-based, RAS-independent, luminescence (AID 1933). The experiment is classed as functional. Particulars: Homo sapiens.
A short description of experiment [15]: HEK293 cell cytotoxicity, dose response, cytotoxicity control, plate reader, cherry-picked samples (AID 743446). In kind it is functional, cell-based.
In experiment [16] the test system is Jurkat. The experiment can be described thus: antigen receptor-induced NF-kB inhibitors, dose response, Jurkat, luciferase reporter, luminescence, B- and T-cell (AID 489004).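 Further: NF-kB luciferase reporter Jurkat cells stimulated with PMA plus ionomycin.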 In kind it is functional, cell-based. Particulars: Homo sapiens. Background: Reporter assays use an easily measured gene product as a stand-in for the process of interest.
The nature of experiment [17]: inhibitors of SNCA 5'UTR-driven translation, confirmation, luminescence, H4 neuroglioblastoma cells, dose confirmation (AID 2454).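 Further: H4 neuroglioblastoma cells carrying an alpha-synuclein 5'UTR luciferase reporter; potency for inhibition of the luciferase signal.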 In kind it is functional, cell-based.
Experiment [18] in a line: LGR2 antagonists, dose response, cell-based, HEK293, CRE-luciferase reporter, cherry pick, set 2 (AID 743343).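 Further: transfected cells were stimulated with diluted bursicon conditioned medium after compound addition.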 In kind it is functional.
Experiment [19] is described as follows: A549 cell cytotoxicity, dose response, cytotoxicity control, plate reader, cherry-pick, antagonist series (AID 743412). In kind it is functional, cell-based.
The nature of experiment [20]: MC4R antagonists, dose response, counter-screen for LGR2 antagonist project, cell-based, plate reader, cherry pick (AID 743444).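 Further: transfected HEK 293 cells stimulated with alpha-MSH peptide; potency of inhibitors of the alpha-MSH evoked signal.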 In kind it is functional.
Experiment [21] concerns BJ. The experiment can be described thus: cells. The experiment is classed as functional, cell-based. Particulars: Homo sapiens.
A short description of experiment [22]: inhibitors of SNCA 5'UTR-driven reporter translation, confirmation, H4 neuroglioma cells, luminescence (AID 1988). The experiment is classed as functional, cell-based.
Experiment [23] is described as follows: luciferase reporter signal reduction – luminescence, H4-C neuroglioblastoma cells, dose response (AID 2458).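 Further: H4 neuroglioblastoma cells stably carrying a luciferase reporter gene fusion.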 In kind it is functional, cell-based.
Experiment [24] can be described thus: cytotoxicity toward DRD oncogenic fibroblasts, dose response, cell-based, non-viral oncogenic, luminescence (AID 1934). The experiment is classed as functional. Particulars: Homo sapiens.
Experiment [25] concerns HEK293. The experiment can be described thus: cells. Particulars: Homo sapiens.
Experiment [26] relates to HEK293. Nature of the experiment: cells. Particulars: Homo sapiens. This is another data set of the same source.

Data on four molecules can be found in ChEMBL document CHEMBL1201862, “PubChem BioAssay data set” (2004).

The structures appear in SMILES notation. Calls of active or inactive are those of the source.

Chain of Mu-type opioid receptor (P35372 whole entry): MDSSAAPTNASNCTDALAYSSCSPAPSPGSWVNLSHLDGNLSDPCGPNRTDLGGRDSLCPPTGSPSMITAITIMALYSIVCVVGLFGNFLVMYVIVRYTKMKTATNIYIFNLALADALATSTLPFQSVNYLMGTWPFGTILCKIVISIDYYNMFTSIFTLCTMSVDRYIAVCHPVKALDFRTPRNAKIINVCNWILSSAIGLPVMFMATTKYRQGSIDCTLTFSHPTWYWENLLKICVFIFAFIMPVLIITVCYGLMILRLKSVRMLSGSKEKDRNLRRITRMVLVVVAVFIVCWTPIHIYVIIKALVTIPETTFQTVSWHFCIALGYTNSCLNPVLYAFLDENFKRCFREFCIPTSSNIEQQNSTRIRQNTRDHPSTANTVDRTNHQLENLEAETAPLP
Chain of Delta-type opioid receptor (P41143 whole entry): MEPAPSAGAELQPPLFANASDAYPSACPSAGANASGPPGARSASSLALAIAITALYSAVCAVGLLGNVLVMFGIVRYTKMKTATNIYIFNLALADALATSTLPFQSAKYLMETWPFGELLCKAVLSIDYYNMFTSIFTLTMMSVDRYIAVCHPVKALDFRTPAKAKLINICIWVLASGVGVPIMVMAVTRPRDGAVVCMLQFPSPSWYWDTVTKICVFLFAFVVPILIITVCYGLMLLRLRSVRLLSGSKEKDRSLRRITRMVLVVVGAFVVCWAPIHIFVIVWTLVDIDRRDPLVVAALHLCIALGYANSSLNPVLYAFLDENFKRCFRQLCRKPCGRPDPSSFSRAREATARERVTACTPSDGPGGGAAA

As to `O=S(=O)(c1c(Cl)cc(Br)cc1Cl)N1CCN(C(=S)NC2CC2)CC1`, the values for the EC50 in experiment [1], in [2] and in experiment [3] were > 92.5 µM (inactive), 11.9 µM (inactive) and > 92.5 µM (inactive), respectively.
For `COC(=O)c1ccc(Cn2cc(/C=C\[N+](=O)[O-])c3ccccc32)o1`, the IC50 (in general, the concentration needed to halve the response being measured) in [4] is > 25 µM (active); in experiment [5], 6.73 µM (active). Moreover, the CC50 – broadly, the concentration giving 50% cytotoxicity – in [6] was 10.4 µM (active).
With `Nc1ncnc2c1ccn2[C@@H]1O[C@H](CO)[C@@H](O)[C@H]1O` [TUBERCIDIN], the AC50 (commonly the concentration giving half of the maximal activity seen) in experiment [7] is 0.25 µM (active); in experiment [15], 1.6 µM (active); in experiment [18], 2.77 µM (active); in experiment [19] it was 0.0912 µM (active); in experiment [20], 3.98 µM (active). The EC50 – broadly, the concentration at which the effect is half-maximal – was 0.223 µM (active) in experiment [8]; < 0.1 µM (active) in experiment [9]; 3.06 µM (active) in experiment [10]; 5.04 µM (active) in [11]; < 0.104 µM (active) in experiment [13]; 2.08 µM (inconclusive) in experiment [14]. Moreover, the EC50 is 0.204 µM (active) in experiment [17]; 5.45 µM (inconclusive) in [21]; < 0.1 µM (active) in experiment [22]; 0.252 µM (active) in experiment [23]; 4.12 µM (active) in experiment [24]. In addition, the IC50 in experiment [12] is > 80 µM (inactive); in experiment [16], 7.83 µM (active).
As to `Brc1ccc2c(c1)-c1ccccc1C1=NCCN12`, the EC50 in experiment [25] and in experiment [26] was > 59.8 µM (inactive) throughout.
